Consider 14 compounds from patent publication US10052320B2, “Substituted quinoxalines as FGFR kinase inhibitors” (ASTEX THERAPEUTICS LIMITED, priority 2011, dated 2018).

Molecules are shown by their SMILES.

Assay type in all cases: cell-based
Experiment [1] addresses T1, Ba/F3-Flt3-transfected cells (Homo sapiens, UniProt P36888, cells depend on it, form not given).
T1 sequence (P36888 1-993): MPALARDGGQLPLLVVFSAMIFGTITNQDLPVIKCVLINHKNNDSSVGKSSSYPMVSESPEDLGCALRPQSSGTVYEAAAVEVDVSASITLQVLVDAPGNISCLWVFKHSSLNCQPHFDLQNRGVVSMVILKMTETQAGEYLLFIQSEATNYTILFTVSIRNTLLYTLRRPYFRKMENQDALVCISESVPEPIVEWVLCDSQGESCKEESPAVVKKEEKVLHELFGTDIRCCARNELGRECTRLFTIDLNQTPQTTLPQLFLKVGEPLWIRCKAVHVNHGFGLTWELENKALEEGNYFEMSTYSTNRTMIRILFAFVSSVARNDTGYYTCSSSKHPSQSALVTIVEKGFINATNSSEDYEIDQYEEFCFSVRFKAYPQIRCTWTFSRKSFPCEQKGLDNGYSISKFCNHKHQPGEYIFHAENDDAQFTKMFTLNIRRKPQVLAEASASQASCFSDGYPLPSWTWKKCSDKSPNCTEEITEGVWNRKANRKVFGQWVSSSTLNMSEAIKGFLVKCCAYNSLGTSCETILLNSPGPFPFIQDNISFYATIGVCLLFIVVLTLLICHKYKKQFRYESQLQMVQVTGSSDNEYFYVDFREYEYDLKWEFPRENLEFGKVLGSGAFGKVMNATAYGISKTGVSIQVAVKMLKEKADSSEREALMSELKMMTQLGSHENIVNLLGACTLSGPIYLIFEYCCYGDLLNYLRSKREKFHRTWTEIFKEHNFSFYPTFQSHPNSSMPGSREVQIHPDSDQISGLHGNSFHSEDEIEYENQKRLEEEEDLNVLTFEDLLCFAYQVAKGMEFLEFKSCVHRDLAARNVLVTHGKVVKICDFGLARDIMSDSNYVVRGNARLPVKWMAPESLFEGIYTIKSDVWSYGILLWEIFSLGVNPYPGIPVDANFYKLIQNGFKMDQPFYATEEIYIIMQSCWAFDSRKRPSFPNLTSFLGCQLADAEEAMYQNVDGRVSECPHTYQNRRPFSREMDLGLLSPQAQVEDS
Description: Ba/F3-Flt3 (minus IL3) cellular proliferation assay, Alamar Blue.

For experiment [2], the target named is Ba/F3-KDR-transfected cells (Homo sapiens, UniProt P35968). Nature of the experiment: Ba/F3-KDR (minus IL3) cellular proliferation assay, Alamar Blue. The procedure, abridged: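 Ba/F3-KDR cells in RPMI-1640 with 10% FBS, 20000 (384-well) or 10000 (96-well) per well, given compound for 24 h at 37° C; Alamar Blue then added for 4 h and fluorescence read (ex 540/em 590 nm). Counterscreen run identically with 10 ng/ml murine IL3.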
Sequence of Ba/F3-KDR-transfected cells (P35968 whole entry, change not shown): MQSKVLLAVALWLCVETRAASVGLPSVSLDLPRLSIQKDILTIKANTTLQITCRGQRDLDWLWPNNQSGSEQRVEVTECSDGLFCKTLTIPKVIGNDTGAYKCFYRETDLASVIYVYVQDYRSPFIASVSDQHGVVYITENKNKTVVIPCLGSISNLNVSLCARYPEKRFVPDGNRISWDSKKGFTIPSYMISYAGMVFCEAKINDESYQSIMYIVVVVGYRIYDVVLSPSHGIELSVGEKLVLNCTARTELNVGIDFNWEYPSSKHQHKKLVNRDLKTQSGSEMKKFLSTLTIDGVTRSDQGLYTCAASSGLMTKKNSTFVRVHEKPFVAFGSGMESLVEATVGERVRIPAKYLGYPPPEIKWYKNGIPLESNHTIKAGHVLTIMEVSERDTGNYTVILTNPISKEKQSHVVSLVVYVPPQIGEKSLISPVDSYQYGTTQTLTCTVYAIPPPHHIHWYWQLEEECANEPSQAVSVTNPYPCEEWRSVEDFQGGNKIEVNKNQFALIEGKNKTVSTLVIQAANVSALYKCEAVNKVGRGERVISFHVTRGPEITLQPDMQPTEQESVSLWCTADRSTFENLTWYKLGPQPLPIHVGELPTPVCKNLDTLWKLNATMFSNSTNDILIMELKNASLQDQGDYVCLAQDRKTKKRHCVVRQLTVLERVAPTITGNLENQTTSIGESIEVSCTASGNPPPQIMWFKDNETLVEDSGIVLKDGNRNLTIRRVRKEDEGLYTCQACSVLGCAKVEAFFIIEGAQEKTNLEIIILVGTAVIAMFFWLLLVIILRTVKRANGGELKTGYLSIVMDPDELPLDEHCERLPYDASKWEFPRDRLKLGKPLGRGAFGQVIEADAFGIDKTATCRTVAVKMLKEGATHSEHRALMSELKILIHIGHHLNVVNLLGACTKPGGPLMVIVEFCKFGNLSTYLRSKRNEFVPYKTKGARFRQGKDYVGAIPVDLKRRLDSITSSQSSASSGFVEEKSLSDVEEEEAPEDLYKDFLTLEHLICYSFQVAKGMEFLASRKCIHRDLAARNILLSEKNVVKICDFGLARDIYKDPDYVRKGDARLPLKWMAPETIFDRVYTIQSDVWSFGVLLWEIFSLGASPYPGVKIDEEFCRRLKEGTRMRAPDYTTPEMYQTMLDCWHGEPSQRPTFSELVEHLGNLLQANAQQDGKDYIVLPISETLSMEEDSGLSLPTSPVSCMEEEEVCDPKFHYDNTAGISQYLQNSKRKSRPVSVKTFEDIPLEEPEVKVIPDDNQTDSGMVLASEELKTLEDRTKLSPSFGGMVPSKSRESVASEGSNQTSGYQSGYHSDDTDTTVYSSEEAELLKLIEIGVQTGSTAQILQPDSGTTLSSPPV

The target of experiment [3] is Ba/F3-FGFR3-transfected cells (Homo sapiens, UniProt P22607). Description: Ba/F3-FGFR3 (minus IL3) cellular proliferation assay, Alamar Blue. Conditions: for BAF3-FGFR 3 (MIN IL3) 384 well pIC50: minus IL3, 384 well; for BAF3-FGFR 3 (MIN IL3) 96 well pIC50: minus IL3, 96 well. The procedure, abridged:
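Ba/F3-FGFR3 cells in phenol red-free RPMI-1640/10% FBS exposed to compound 24 h at 37° C., then Alamar Blue (resazurin) 4 h; fluorescence ex 540/em 590 nm. Run at 20000 cells/well (384-well) or 10000 cells/well (96-well); counterscreen identical but with 10 ng/ml murine IL3.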

Sequence of Ba/F3-FGFR3-transfected cells (P22607 whole entry, change not shown): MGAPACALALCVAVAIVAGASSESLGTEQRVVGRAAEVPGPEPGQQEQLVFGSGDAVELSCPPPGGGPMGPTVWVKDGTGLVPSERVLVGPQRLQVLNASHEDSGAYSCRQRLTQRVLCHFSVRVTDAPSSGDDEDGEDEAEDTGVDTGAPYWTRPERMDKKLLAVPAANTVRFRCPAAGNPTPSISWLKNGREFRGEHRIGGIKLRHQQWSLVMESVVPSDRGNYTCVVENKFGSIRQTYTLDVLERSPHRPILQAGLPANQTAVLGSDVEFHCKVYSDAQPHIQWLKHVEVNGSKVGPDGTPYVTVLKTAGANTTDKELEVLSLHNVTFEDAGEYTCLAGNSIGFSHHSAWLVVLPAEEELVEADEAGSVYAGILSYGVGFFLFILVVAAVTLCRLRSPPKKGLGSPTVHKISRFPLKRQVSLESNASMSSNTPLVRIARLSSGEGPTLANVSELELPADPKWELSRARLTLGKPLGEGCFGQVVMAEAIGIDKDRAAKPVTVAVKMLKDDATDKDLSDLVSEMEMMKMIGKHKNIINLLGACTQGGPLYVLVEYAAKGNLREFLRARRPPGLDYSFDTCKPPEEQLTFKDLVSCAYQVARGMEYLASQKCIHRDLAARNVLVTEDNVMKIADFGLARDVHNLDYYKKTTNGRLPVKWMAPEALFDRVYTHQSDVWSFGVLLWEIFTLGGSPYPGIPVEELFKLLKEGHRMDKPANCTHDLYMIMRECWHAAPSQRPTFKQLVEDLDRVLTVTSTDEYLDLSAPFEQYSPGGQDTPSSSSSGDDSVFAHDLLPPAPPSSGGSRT

Turning to `COc1cc(OC)cc(N(CC(OC(C)=O)C(F)(F)F)c2ccc3ncc(-c4cccnc4)nc3c2)c1` (single isomer, unassigned) [Compound 45], the “BAF3-FLT3 (MIN IL3) 384 well pIC50” value in experiment [1] (minus IL3) is under 5. Besides, in experiment [2] (minus IL3), the “BAF3-KDR (MIN IL3) 384 well pIC50” value was under 5.
In the case of `COc1cc(OC)cc(N(CCCNCC(F)(F)F)c2ccc3ncc(-c4ccc(N(C)C(=O)OC(C)(C)C)nc4)nc3c2)c1` [Compound 127], the “BAF3-FGFR 3 (MIN IL3) 384 well pIC50” value in experiment [3] was under 5. Besides, the “BAF3-FLT3 (MIN IL3) 384 well pIC50” value in experiment [1] (minus IL3) was under 5. Further, the “BAF3-KDR (MIN IL3) 384 well pIC50” value in experiment [2] (minus IL3) was under 5.
`COc1cc(OC)cc(N(CC2CC2)c2ccc3ncc(-c4ccc5c(ccn5C)c4)nc3c2)c1` [Compound 20]: in experiment [1] (minus IL3, 96 well), the “BAF3-FLT3 (MIN IL3) 96 well pIC50” value is under 5. Also, the “BAF3-FLT3 (MIN IL3) 384 well pIC50” value in experiment [1] (minus IL3, 384 well) is under 5. Besides, the “BAF3-KDR (MIN IL3) 384 well pIC50” value in experiment [2] (minus IL3, 384 well) is under 5.
As to `COc1cc(OC)cc(N(CCCO)c2ccc3ncc(-c4ccc(F)nc4)nc3c2)c1` [Compound 117], in experiment [3], the “BAF3-FGFR 3 (MIN IL3) 384 well pIC50” value is 6.25. Further, the “BAF3-KDR (MIN IL3) 384 well pIC50” value in experiment [2] (minus IL3) is given as under 5.
Turning to `COc1cc(OC)cc(N(Cc2cccc(CN)n2)c2ccc3ncc(-c4ccc(N)nc4)nc3c2)c1` [Compound 51], the “BAF3-FGFR 3 (MIN IL3) 384 well pIC50” value in experiment [3] is about 5.77. Besides, the “BAF3-FLT3 (MIN IL3) 384 well pIC50” value in experiment [1] (minus IL3) is given as 5.27. For the same compound, the “BAF3-KDR (MIN IL3) 384 well pIC50” value in experiment [2] (minus IL3) came out at 5.04.
The like results for `COc1cc(OC)cc(N(CCNC(C)C)c2ccc3ncc(-c4ccccc4)nc3c2)c1` [Compound 121] were, in that order, 6.42, about 5.34 and about 5.3.
For `COc1cc(OC)cc(N(CC(O)CO)c2ccc3ncc(-c4ccc(N)nc4)nc3c2)c1` (stereo not drawn) [Compound 74] the same measures were 6.69, under 5 and under 5.
As for `CCOC(=O)c1ncn(-c2cnc3ccc(N(CC4CC4)c4cc(OC)cc(OC)c4)cc3n2)c1C` [Compound 65], in experiment [3], the “BAF3-FGFR 3 (MIN IL3) 96 well pIC50” value was 5.08 and the “BAF3-FGFR 3 (MIN IL3) 384 well pIC50” value is reported as under 5. For the same compound, in experiment [1] (minus IL3), the “BAF3-FLT3 (MIN IL3) 96 well pIC50” value was under 5 and the “BAF3-FLT3 (MIN IL3) 384 well pIC50” value was under 5. Moreover, in experiment [2] (minus IL3), the “BAF3-KDR (MIN IL3) 96 well pIC50” value is under 5 and the “BAF3-KDR (MIN IL3) 384 well pIC50” value is under 5.
In the case of `COc1cc(OC)cc(N(CCCO)c2ccc3ncc(-c4ccc(N5CCOCC5)nc4)nc3c2)c1` [Compound 124], the “BAF3-FGFR 3 (MIN IL3) 384 well pIC50” value in experiment [3] was about 6.64. Further, in experiment [1] (minus IL3), the “BAF3-FLT3 (MIN IL3) 384 well pIC50” value was under 5. Further, in experiment [2] (minus IL3), the “BAF3-KDR (MIN IL3) 384 well pIC50” value was found to be 5.11.
For `COCCCN(c1cc(OC)cc(OC)c1)c1ccc2ncc(-c3ccn(C)c3)nc2c1` [Compound 3] the same measures were 6.62, 5.07 and 5.07.
Take `COc1cc(OC)cc(N(CCNC(C)C)c2ccc3ncc(-c4ccn(C)c4)nc3c2)c1` [Compound 8]: the “BAF3-FGFR 3 (MIN IL3) 384 well pIC50” value in experiment [3] is reported as about 7.69. The “BAF3-FLT3 (MIN IL3) 384 well pIC50” value in experiment [1] (minus IL3) was 5.2. For the same compound, the “BAF3-KDR (MIN IL3) 384 well pIC50” value in experiment [2] (minus IL3) was determined as 6.19.
Take `COc1cc(OC)cc(N(CC2CC2)c2ccc3ncc(-c4ccn[nH]4)nc3c2)c1` [Compound 58]: in experiment [3], the “BAF3-FGFR 3 (MIN IL3) 96 well pIC50” value is 5.56. Moreover, in experiment [1] (minus IL3), the “BAF3-FLT3 (MIN IL3) 96 well pIC50” value is given as under 5 and the “BAF3-FLT3 (MIN IL3) 384 well pIC50” value is listed as under 5. Further, the “BAF3-KDR (MIN IL3) 384 well pIC50” value in experiment [2] (minus IL3) is on record as under 5.
Regarding `CNC(=O)c1cc(-c2cnc3ccc(N(CCCNCC(F)(F)F)c4cc(OC)cc(OC)c4)cc3n2)ccn1` [Compound 122], in experiment [3], the “BAF3-FGFR 3 (MIN IL3) 384 well pIC50” value is listed as 5.49. The “BAF3-FLT3 (MIN IL3) 384 well pIC50” value in experiment [1] (minus IL3) was under 5. The “BAF3-KDR (MIN IL3) 384 well pIC50” value in experiment [2] (minus IL3) is under 5.
With `COc1cc(OC)cc(N(CC2CC2)c2ccc3ncc(-c4cc[nH]c4)nc3c2)c1` [Compound 36], in experiment [1] (minus IL3), the “BAF3-FLT3 (MIN IL3) 96 well pIC50” value was under 5 and the “BAF3-FLT3 (MIN IL3) 384 well pIC50” value was under 5. In experiment [2] (minus IL3), the “BAF3-KDR (MIN IL3) 96 well pIC50” value was under 5 and the “BAF3-KDR (MIN IL3) 384 well pIC50” value is given as under 5.
